According to patent publication US8455552B2, “Composition comprising S-allylmercapto-N-acetylcysteine (ASSNAC) for up-regulation of cellular glutathione level” (RAMOT et Tel Aviv University Ltd., priority 2007, dated 2013):
Where two headings read alike, the source gives them in different places.

Tests used:
[1] = tested on: Bovine aortic endothelial cells (EC); test: Determination of total glutathione in endothelial cell cultures; assay type: cell-based; conditions: for glutathione cellular level as a function of time: FIG. 2A; for EC50: Bos taurus, Endothelial cell, concentration giving half-maximal increase of glutathione level, read-out: HALF-maximal (effect of increased glutathione level); for Maximal effect (increased glutathione level): concentration giving maximal increase of glutathione level
Procedure: (§1) Bovine aortic endothelial cells (EC) were prepared from bovine aorta, cultured in DMEM supplemented with 5% fetal calf serum, 5% calf serum, 2 mM L-glutamine, 100 U/ml penicillin, 100 μg/ml streptomycin, 12.5 U/ml nystatin and FGF-2 (3 ng/ml; added every 48 hours). Cultures were incubated at 37° C. in a humidified 10% CO2 atmosphere and passages 12-18 were used for experiments.
(§2) EC cultures were incubated in the presence or absence of PDTC, NAC, ASSNAC and their combinations. At the end of the incubation, cells were washed, collected into 10 mM HCl and further lyzed by samples freezing (in liquid nitrogen) and thawing, 3 times. Cell protein was precipitated by addition of SSA (10%) followed by centrifugation at 10,000 g and supernatant was collected for glutathione determination. Total glutathione (GSH+GSSG) was determined by the Anderson recycling method. Briefly, a reaction mixture containing phosphate buffer, EDTA, DTNB, NADPH and glutathione reductase was added to 96-wells plates already containing 20 μl of the experimental samples or a GSSG standard. The plates were shaken and OD at 405 nm was monitored at 10 sec intervals for 130 sec in a micro-plate reader. To determine the GSSG level in the total cellular glutathione, 2-vinylpyridine was used to conjugate GSH and remove it from the mixture followed by total glutathione determination as described above. For normalization, the protein pellet of each sample was lyzed in 0.2 N NaOH and quantified by the Lowry method.

heme oxygenase-1 (HO-1) = test: Gene expression by real-time PCR in EC: HO-1; assay type: cell-based, bovine; conditions: 3 hours; NAC 2 mM, ASSNAC 0.2 mM
Excerpt: (§3) Total RNA was collected by EZ-RNA 2 kit, treated with DNAse, converted to cDNA and assayed in triplicate by real-time quantitative PCR using a ABI Prism 7700 Sequence Detector System (Applied Biosystem, Foster City, Calif., USA), with Absolute SYBR Green ROX mix and analyzed (SDS 2.1 software). Primers: human glutamate-cysteine-ligase modifier subunit (GCLM)—Forward: 5′[…] GTAAC3′ • and Reverse: 5′[…]3′; • Human heme oxygenase-1 (HO-1)—Forward: 5′[…]3′ • and Reverse: 5′[…]3′; • bovine TGF β2—Forward: […] • and Reverse: […]; • bovine TNF-alfa—Forward: […] • and Reverse: […]; • bovine ICAM-1—Forward: […] • and Reverse: […]; • bovine VCAM-1 Forward: […] • and Reverse: […]. • Results were normalized based on the quantity of human β-actin. Primers—Forward: 5′CCTGGCACCCAGCACAAT3′ and Reverse: 5′[…]3′.
(§4) Increased expression of the phase II detoxifying enzymes by cells is indicative of increased protection against oxidative stress. In order to determine the effect of NAC and ASSNAC on gene expression in EC, cells were treated with NAC (2 mM) and ASSNAC (0.2 mM) for 3 hours following by extraction of mRNA. The expression of GCLM and HO-1 was then studied by Real-Time PCR. […] Without being bound by any theory or mechanism of action, the GCLM activity and the cystein level are considered to be the rate limiting step of the glutathione synthesis. […]

TGF β2 = test: Gene expression by real-time PCR in EC: TGF β2; assay type: cell-based, bovine; conditions: 3 hours; ASSNAC 0.2 mM, LPS 1 μg/ml
Excerpt: as §3
(§5) The effect of ASSNAC on gene expression was further shown to be specific. Endothelial cells (EC) were treated by ASSNAC (0.2 mM) and LPS (1 μg/ml) for 3 hours following by mRNA extraction. The expression of the inflammatory genes TGF β2, ICAM-1, VCAM-1 and TNFα was then studied by Real-Time PCR. […] Only TGF β2 was induced by ASSNAC and to a lesser extent by LPS. TNFα expression was not induced by either ASSNAC or LPS (Table 2B).

[2] = tested on: human neuroblastomas SH-SY5Y cell line; test: Cellular glutathione level in SH-SY5Y cultures; assay type: cell-based
Procedure: In order to establish the potential effect of ASSNAC on glutathione up-regulation in the nerve system as a mean to protect against neurodegenerative diseases the effect of ASSNAC on the human neuroblastomas SH-SY5Y cell line was studied. The cells were cultured in DMEM supplemented with 10% fetal calf serum, 2 mM L-glutamine, 100 U/ml penicillin, 100 μg/ml streptomycin, 12.5 U/ml nystatin. Cultures were incubated at 37° C. in a humidified 10% CO2 atmosphere.
as §2
The effect was observable at a concentration of 0.05 mM with a 2.4-fold maximal increase in glutathione at a concentration of 0.2 mM. The results are presented as mean±SD (n=2). A significant increase in glutathione was determined by ANOVA analysis (p<0.005; FIG. 8A).
Confluent SH-SY5Y cultures were exposed to ASSNAC (0.2 mM) for various time periods. The cultures were then washed and the cellular level of total glutathione was determined. […] The results are presented as mean±SD (n=2). A significant increase in glutathione was determined by ANOVA analysis (p<0.005; FIG. 8B).

Endothelial cells (EC) = test: Cytotoxicity test, BuOOH-stimulated cytotoxicity in endothelial cells (Neutral Red); assay type: cell-based, bovine; conditions: pre-incubation 18 hours; ASSNAC 0.2 mM vs NAC 1 mM and CSSA 0.2 mM; BuOOH 0.1 mM 3 hours
Procedure: as §1
Endothelial cells (EC; 10^4 cells/well) were grown till confluency in fibronectin-coated (5 μg/ml) 96 wells plates. Confluent EC were pre-incubated with ASSNAC 0.2 mM, CSSA 0.2 mM and NAC 1 mM for 18 hours in growth medium at 37° C. Subsequently, cells were washed with serum free DMEM medium and treated with […] ([…]) 0.1 mM for 3 hours. The number of viable cells was determined by Neutral Red (NR) staining method. After removing the culture medium, cells were incubated in NR working solution (1:100 in DCCM) for 2 hours at 37° C. […] Optical density of the dye was determined at 550 nm in an ELISA reader. The cell cytotoxicity was calculated by the following formula: Cytotoxicity (%)=[1−NR uptake in treated wells/NR uptake in control wells]×100 The control (untreated wells) were determined as 0% cytotoxity, the average of triplicates of each treatment is shown.

TNFα = test: Gene expression by real-time PCR in EC: TNFα; assay type: cell-based, bovine; conditions: 3 hours; ASSNAC 0.2 mM, LPS 1 μg/ml
Excerpt: as §3, §5

VCAM-1 = test: Gene expression by real-time PCR in EC: VCAM-1; assay type: cell-based, bovine; conditions: 3 hours; ASSNAC 0.2 mM, LPS 1 μg/ml
Excerpt: as §3, §5

[3] = tested on: glutamate-cysteine-ligase modifier subunit (GCLM); test: Gene expression by real-time PCR in EC: GCLM; assay type: cell-based, bovine; conditions: 3 hours; NAC 2 mM, ASSNAC 0.2 mM
Excerpt: as §3, §4

[4] = tested on: human neuroblastomas SH-SY5Y cell line; test: Protection of SH-SY5Y cultures against tBuOOH cytotoxicity (neutral red); conditions: then tBuOOH 1 mM 3 hours
ICAM-1 = test: Gene expression by real-time PCR in EC: ICAM-1; assay type: cell-based, bovine; conditions: 3 hours; ASSNAC 0.2 mM, LPS 1 μg/ml
Excerpt: as §3, §5

[5] = tested on: Bovine aortic endothelial cells (EC); conditions: from L. Horev-Azaria, Ph.D. Thesis, cited from earlier work
[6] = 24 hours, increasing concentrations

Row | Compound | Maximal Fold Increase (glutathione level) [1] | glutathione cellular level as a function of time ([1]; 0.2 mM) | concentration of maximal effect on glutathione level [1, 6] [mM] | EC50 [1] [µM] | Maximal effect (increased glutathione level) [1] [µM] | HO-1 gene expression (heme oxygenase-1 (HO-1)) | TGF β2 gene expression (TGF β2) | TNFα gene expression (TNFα) | VCAM-1 gene expression (VCAM-1) | GCLM gene expression [3] | ICAM-1 gene expression (ICAM-1) | further results
1 | C=CCSSC[C@H](NC(C)=O)C(=O)O [ASSNAC, S-allylmercapto-N-acetylcysteine] | 4 | significant increase in glutathione cellular level | 0.2 | 60 | 200 | 8.2 ± 4.2 (n = 4) | 2.14 | 0.77 | 0.94 | 2.3 ± 1.0 (n = 4) | 1.03 | glutathione level after 24 hours, ASSNAC in comparison to CSSA ([1]; 0.2 mM, 24 hours): higher glutathione level; concentration at which up-regulation of glutathione level starts [1, 6]: 0.05 mM; signs of cytotoxic effect ([1]; up to a concentration of 2.0 mM, 24 hours): without any signs of cytotoxic effect; concentration at which increase in glutathione is observable ([2]; 24 hours): 0.05 mM; concentration of maximal increase in glutathione ([2]; 24 hours): 0.2 mM; maximal increase in glutathione ([2]; 24 hours, at 0.2 mM): 2.4 fold; time of maximal increase in glutathione ([2]; ASSNAC 0.2 mM): 24 h; protection of cells from BuOOH oxidation stress (Endothelial cells (EC)): better protection; cytotoxicity after ASSNAC pretreatment ([4]; ASSNAC 0.2 mM 24 hours): 25%; concentration at which decrease in cytotoxicity starts ([4]; pretreatment 24 hours): 25 µM
2 | C=CCS[S+]([O-])CC=C (centres unmarked) [Allicin] |  |  |  |  |  |  |  |  |  |  |  | Maximal Fold Increase (glutathione level) [5]: 8; Maximal effect (increased glutathione level) [5]: 20 µM; EC50 ([5]; read-out: HALF-maximal (effect of increased glutathione level)): 7 µM
3 | C=CCSSC[C@H](N)C(=O)O [CSSA, S-allylmercaptocysteine] | 2 | significant increase in glutathione cellular level |  | 70 | 200 |  |  |  |  |  |  | speed of glutathione response ([1]; 0.2 mM, CSSA compared with ASSNAC): faster response; distribution of glutathione up-regulation between GSH and GSSG ([1]; 0.3 mM CSSA, FIG. 4): increase in GSH but not in GSSG level; GSSG level as share of the total cellular glutathione level ([1]; 0.3 mM CSSA, different time intervals): lower than 2%
4 | CC(=O)N[C@@H](CS)C(=O)O [NAC, N-acetylcysteine] | 2.5 |  | 2 | 320 | 500 | 0.9 ± 0.1 (n = 3) |  |  |  | 1.0 ± 0.2 (n = 3) |  | time to maximal increase in glutathione level ([1]; NAC 2 mM): 6 h
5 | S=C(S)N1CCCC1 [PDTC, Pyrrolidine dithiocarbamate] |  |  |  |  |  |  |  |  |  |  |  | reduced glutathione (GSH) versus PDTC concentration ([1]; 24 hours, increasing concentrations, FIG. 6A): concentration dependent increase; concentration of GSH versus time ([1]; PDTC 0.1 mM, increasing time intervals, FIG. 6B): linear increase
6 | lipopolysacharide [LPS] |  |  |  |  |  |  | 5.7 | 0.71 | 104.7 |  | 19.52 | 
